Reference: patent publication US8178506B2, “Oligomeric compounds and compositions for use in modulation of small non-coding RNAs” (Regulus Therapeutics Inc., priority 2003, dated 2012)
In the oligonucleotide strings, read from the 5' end, every base follows the letter of its sugar. An asterisk marks phosphorothioate; unmarked linkages are phosphodiester. Other units and linkages are bracketed, terminal groups are in braces. A string of capitals states the bases alone. e = 2'-O-(2-methoxyethyl) (MOE); [5mC] = 5-methylcytosine; d = 2'-deoxy (DNA)

How the values were obtained:
mir-30a pri-miRNA = test: mir-30a luciferase reporter (pGL3C-M30-4X) assay in 293T cells; format: cell-based, human; conditions: 150 nM oligomeric compound, then mir-30a pri-miRNA mimic 200 nM, pGL3C-M30-4X normalized to pRL-CMV
From the text: In one embodiment of the invention, oligomeric compounds targeting the hairpin structure of mir-30a pri-miRNA were designed and tested for their effects on miRNA signaling in 293T cells (American Type Culture Collection (Manassas, Va.)).
A synthetic DNA fragment comprised of four tandem repeats of the target site for mir-30a was cloned into the vector pGL3-C (purchased from Promega Corp., Madison Wis.) at the unique XbaI site (pGL3C-M30-4X). This places the target site in the 3′UTR of the luciferase reporter vector. An oligomeric compound mimicking the mir-30a pri-miRNA ([…] […], herein incorporated as SEQ ID NO: 1749) was in vitro transcribed using T7 RNA polymerase and a DNA template produced by PCR (the T7 promoter is shown in bold).
On the day prior to the experiment 24-well plates were seeded with 293T cells at 50% confluency. The following morning cells were treated with oligomeric compounds targeted to the mir-30a pri-miRNA mimic. All of the compounds are 20 nucleobases in length having either a phosphorothioate backbone throughout (PS) or a phosphodiester backbone throughout (PO). […] All cytidine residues are 5-methylcytidines. The remaining compounds in the table have 2′-methoxyethoxy (MOE) nucleotides throughout with either a phosphorothioate (PS) or phosphodiester (PO) internucleoside linkages.
Cells were washed once with PBS then oligomeric compounds were added to triplicate wells at 150 nM in OPTI-MEM™ media and 4.5 μl/ml LIPOFECTIN™ reagent (Invitrogen Corporation, Carlsbad, Calif.). After 3 hours, the media was removed, and the cells were treated with the mir-30a pri-miRNA mimic at 200 nM in OPTI-MEM™ with 6 μl/ml LIPOFECTIN™ reagent. After 3 hours the media was removed from the cells. The reporter plasmid, pGL3C-M30-4X, was then transfected using SuperFect reagent. 20 μg of pGL3C-M30-4X and 2 μg of pRL-CMV, a plasmid expressing Renilla luciferase, were suspended in 600 μL of serum-free DMEM to which 120 μl of Superfect was added. After a 5 minute incubation, 6 mls of DMEM+10% FCS was added. 125 μL of the plasmid/SuperFect suspension was added to each well. After a 2 hour incubation cells were washed and fresh growth media added. Cells were incubated overnight.
The following morning the media was removed and the cells were lysed in 120 μL passive lysis buffer (PLB; Promega). 40 μL of the lysate was then assayed for Photinus (PL) and Renilla (RL) luciferases using a Dual Luciferase Assay kit (Promega) according to the manufacturer's protocol. The results below are given as percent pGL3C-M30-4× expression (PL) normalized to pRL-CMV expression (RL). The 20-nucleobase oligonucleotide random-mer ISIS Number 29848 was used as a negative control.

HepG2 cells = test: Insulin signaling assay in HepG2 cells, marker genes taken together; format: cell-based, human; conditions: for expression of the IGFBP-1 and follistatin marker genes / IGFBP-1 and PEPCK-c marker genes: HepG2, basal (no insulin); for expression of the IGFBP-1, PEPCK-c and follistatin marker genes / mRNA levels of the IGFBP-1 and follistatin genes: HepG2, 1 nM insulin; for expression of the IGFBP-1, PEPCK-c and follistatin marker genes: 100 nM
[1] = system: preadipocytes / differentiating adipocytes; test: Adipocyte differentiation assay, markers taken together; format: cell-based, human
HuVECs = test: Endothelial tube formation assay in HuVECs; conditions: 75 nM
ob/ob mice = test: ob/ob mice: plasma parameters, food consumption, marker gene mRNA; format: in vivo, mouse; conditions: six week old ob/ob mice, 25 mg/kg twice weekly for four weeks
From the text: Leptin is a hormone produced by fat cells that regulates appetite. Deficiencies in this hormone in both humans and non-human animals leads to obesity. ob/ob mice have a mutation in the leptin gene which results in obesity and hyperglycemia. As such, these mice are a useful model for the investigation of obesity and diabetes and treatments designed to treat these conditions. ob/ob mice have higher circulating levels of insulin and are less hyperglycemic than db/db mice, which harbor a mutation in the leptin receptor. In accordance with the present invention, the oligomeric compounds of the invention are tested in the ob/ob model of obesity and diabetes.
Seven-week old male C57B1/6J-Lep ob/ob mice (Jackson Laboratory, Bar Harbor, Me.) are fed a diet with a fat content of 10-15% and are subcutaneously injected with the oligomeric compounds of the invention or a control compound at a dose of 25 mg/kg two times per week for 4 weeks. Saline-injected animals, leptin wildtype littermates (i.e. lean littermates) and ob/ob mice fed a standard rodent diet serve as controls. After the treatment period, mice are sacrificed and target levels are evaluated in liver, brown adipose tissue (BAT) and white adipose tissue (WAT). RNA isolation and target RNA expression level quantitation are performed as described by other examples herein.
To assess the physiological effects resulting from modulation of target, the ob/ob mice are evaluated at the end of the treatment period for serum lipids, serum free fatty acids, serum cholesterol (CHOL), liver triglycerides, fat tissue triglycerides and liver enzyme levels. Hepatic steatosis, or clearing of lipids from the liver, is assessed by measuring the liver triglyceride content. Hepatic steatosis is assessed by routine histological analysis of frozen liver tissue sections stained with oil red O stain, which is commonly used to visualize lipid deposits, and counterstained with hematoxylin and eosin, to visualize nuclei and cytoplasm, respectively.
The effects of target modulation on glucose and insulin metabolism are evaluated in the ob/ob mice treated with the oligomeric compounds of the invention. Plasma glucose is measured at the start of the treatment and after 2 weeks and 4 weeks of treatment. Plasma insulin is similarly measured at the beginning of the treatment, and following at 2 weeks and at 4 weeks of treatment. Glucose and insulin tolerance tests are also administered in fed and fasted mice. Mice receive intraperitoneal injections of either glucose or insulin, and the blood glucose and insulin levels are measured before the insulin or glucose challenge and at 15, 20 or 30 minute intervals for up to 3 hours.
The ob/ob mice that receive treatment are evaluated at the end of the treatment period for the effects of target modulation on the expression of genes that participate in lipid metabolism, cholesterol biosynthesis, fatty acid oxidation, fatty acid storage, gluconeogenesis and glucose metabolism. These genes include, but are not limited to, HMG-CoA reductase, acetyl-CoA carboxylase 1 and acetyl-CoA carboxylase 2, camitine palmitoyltransferase I and glycogen phosphorylase, glucose-6-phosphatase and phosphoenolpyruvate carboxykinase 1, lipoprotein lipase and hormone sensitive lipase. mRNA levels in liver and white and brown adipose tissue are quantitated by real-time PCR as described in other examples herein, employing primer/probe sets that are generated using published sequences of each gene of interest.
As described herein, leptin-deficient (ob/ob) mice, leptin receptor-deficient (db/db) mice and diet-induced obesity (DIO) mice are used to model obesity and diabetes. In accordance with the present invention, oligomeric compounds targeting mir-143, mir-131 (also known as mir-9) and mir-203 were tested in the ob/ob and db/db models. […]

T47D cells = test: Caspase-3 activity assay (apoptosis) in T47D cells; conditions: caspase assay, 200 nM; conclusion from Tables 9-12
PEPCK-c = PEPCK-c mRNA expression in HepG2 cells; format: cell-based, human; conditions: 100 nM; for reduction of PEPCK-c mRNA expression: HepG2, 1 nM insulin
adipocytes = test: Triglyceride accumulation assay in adipocytes; format: cell-based, human; conditions: preadipocytes, 250 nM, day nine
leptin = test: Leptin secretion by adipocytes (ELISA); format: cell-based, human; conditions: preadipocytes, 250 nM, day nine
Description: Leptin secretion into the medium in which adipocytes are cultured is measured by protein ELISA. On day nine post-transfection, 96-well plates are coated with a monoclonal antibody to human leptin (R&D Systems, Minneapolis, Minn.) and left at 4° C. overnight. The plates are blocked with bovine serum albumin (BSA), and a dilution of the treated adipoctye medium is incubated in the plate at room temperature for approximately 2 hours. After washing to remove unbound components, a second monoclonal antibody to human leptin (conjugated with biotin) is added. The plate is then incubated with strepavidin-conjugated horse radish peroxidase (HRP) and enzyme levels are determined by incubation with 3, 3′,5,5′-tetramethlybenzidine, which turns blue when cleaved by HRP. The OD450 is read for each well, where the dye absorbance is proportional to the leptin concentration in the cell lysate.
Leptin is also a marker for differentiated adipocytes. In the adipocyte assay, leptin secretion into the media above the differentiated adipocytes was measured by protein ELISA. Cell growth, transfection and differentiation procedures were carried out as described for the Triglyceride accumulation assay (see below). On day nine post-transfection, 96-well plates were coated with a monoclonal antibody to human leptin (R&D Systems, Minneapolis, Minn.) and left at 4° C. overnight. The plates were blocked with bovine serum albumin (BSA), and a dilution of the media was incubated in the plate at RT for 2 hours. After washing to remove unbound components, a second monoclonal antibody to human leptin (conjugated with biotin) was added. The plate was then incubated with strepavidin-conjugated horseradish peroxidase (HRP) and enzyme levels are determined by incubation with 3, 3′, 5,5′-Tetramethlybenzidine, which turns blue when cleaved by HRP. The OD450 was read for each well, where the dye absorbance is proportional to the leptin concentration in the cell lysate. Results are expressed as a percent±standard deviation relative to transfectant-only controls.

328075 (antisense GCTTCACAGCTTCCAGTCGA; all 2'-MOE, all phosphorothioate, methylation of C not given here) [compound 328075]
percent control luciferase expression (mir-30a pri-miRNA): 55 percent control

328076 (antisense eG*e[5mC]*eT*eT*e[5mC]*dA*d[5mC]*dA*dG*d[5mC]*dT*dT*d[5mC]*d[5mC]*dA*eG*eT*e[5mC]*eG*eA) [compound 328076]
percent control luciferase expression (mir-30a pri-miRNA): 57 percent control

328077 (antisense CCCATCTGTGGCTTCACAGC; all 2'-MOE, all phosphorothioate, methylation of C not given here) [compound 328077]
percent control luciferase expression (mir-30a pri-miRNA): 70 percent control

ACAGGCCGGGACAAGTGCAATA (anti-miR; chemistry not fully specified) [ISIS 327897, uniform 2′-MOE PS; targets mir-92-1]
expression of the IGFBP-1 and follistatin marker genes (HepG2 cells): increased expression of the IGFBP-1 and follistatin marker genes | 5 markers of adipocyte differentiation ([1]; differentiating adipocytes, % of UTC (Table 75)): significant reduction in expression of 4 of the 5 markers of differentiation

CAGCCGCTGTCACACGCACAG (anti-miR; chemistry not fully specified) [ISIS 327959]
IGFBP-1 and PEPCK-c marker genes (HepG2 cells): increases in the IGFBP-1 and PEPCK-c marker genes | tube formation (HuVECs): suppressed tube formation

GAAACCCAGCAGACAATGTAGCT (anti-miR; chemistry not fully specified) [ISIS 345384, PS 2′-MOE 5-10-8 gapmer; targets mir-221]
plasma glucose levels in the fed state (ob/ob mice): reductions in plasma glucose levels in the fed state at weeks two and four

ISIS 328377: 5-10-5 2′-MOE gapmer PS; targets hypothetical miRNA-030 pri-miRNA (eT*e[5mC]*eA*e[5mC]*eT*d[5mC]*d[5mC]*dT*dA*dA*dA*dG*dG*dT*dT*e[5mC]*eA*eA*eG*eT)
expression of the IGFBP-1, PEPCK-c and follistatin marker genes (HepG2 cells): increased expression of the IGFBP-1, PEPCK-c and follistatin marker genes | apoptosis in T47D cells (T47D cells): prevent or have a protective effect from apoptosis

ISIS 328761: oligomeric compound targeting hypothetical mir-138 (antisense eG*e[5mC]*eA*eG*eG*d[5mC]*dT*dA*dA*dA*dA*dG*dA*dA*dA*eT*eA*eA*eG*e[5mC])
mRNA levels of the IGFBP-1 and follistatin genes (HepG2 cells): also reduced | reduction of PEPCK-c mRNA expression (PEPCK-c): 45% | decrease in PEPCK-c mRNA (PEPCK-c; HepG2, basal (no insulin)): 52%

ISIS 328765: oligomeric compound targeting mir-215 (antisense eG*eA*e[5mC]*eA*eA*dA*d[5mC]*dT*d[5mC]*dA*dG*d[5mC]*dT*dA*dT*eA*eT*eT*eG*eT)
mRNA levels of the IGFBP-1 and follistatin genes (HepG2 cells): also reduced | reduction of PEPCK-c mRNA expression (PEPCK-c): 27%

ISIS 341802: SEQ ID NO: 1806, targeting mir-191 (antisense AGCUGCUUUUGGGAUUCCGUUG; all 2'-MOE, all phosphorothioate, methylation of C and T or U not given here)
expression of the IGFBP-1 and follistatin marker genes (HepG2 cells): increased expression of the IGFBP-1 and follistatin marker genes

ISIS 341803: SEQ ID NO: 760, targeting mir-206 (antisense CCACACACTTCCTTACATTCCA; all 2'-MOE, all phosphorothioate, methylation of C not given here)
IGFBP-1 and PEPCK-c marker genes (HepG2 cells): increases in the IGFBP-1 and PEPCK-c marker genes

TAGCTGGTTGAAGGGGACCAA (anti-miR; chemistry not fully specified) [ISIS 327925]
expression of the IGFBP-1, PEPCK-c and follistatin marker genes (HepG2 cells): increased expression of the IGFBP-1, PEPCK-c and follistatin marker genes | tube formation (HuVECs): suppressed tube formation

TCACAAGTTAGGGTCTCAGGGA [ISIS 327939]
expression of the IGFBP-1, PEPCK-c and follistatin marker genes (HepG2 cells): increased expression of the IGFBP-1, PEPCK-c and follistatin marker genes | triglyceride accumulation (adipocytes): decrease in triglyeride accumulation | Leptin (secretion) (leptin): significant increase in leptin secretion | expression of the four adipocyte differentiation hallmark genes ([1]; preadipocytes, 250 nM, day nine): decrease in the expression of all four adipocyte differentiation hallmark genes
